Assay results: US4596790A, “Peptides for the treatment of hyperglycaemia” (Nyegaard & Co. A/S, priority 1983, dated 1986)
Non-standard residues stand in square brackets, D forms with d. Residues, ends and D or L forms follow the SMILES beside them. No end group written: not given here. pGlu = O=C1CC[C@@H](C(=O)O)N1

Columns and labels:
pancreatic β-cells = experiment: insulin releasing activity (potentiation of the insulin releasing activity of glucose); details: qualitative ranking among the compounds prepared
[1] = reported in the literature; cited from earlier work

Compound | activity (insulin releasing) (pancreatic β-cells) | hyperglycaemic and hyperinsulinaemic activity [1]
O=C(O)CNC(=O)[C@H](CC(=O)O)NC(=O)[C@H](CC(=O)O)NC(=O)[C@@H]1CCC(=O)N1 [p-Glu-Asp-Asp-Gly, H-L-(PYRO) GLUTAMYL-L-ASPARTYL-L-ASPARTYL-GLYCINE] (HELM PEPTIDE1{[Glp].D.D.G}$$$$V2.0) | Especially active | 
[pGlu]SDG |  | hyperglycaemic and hyperinsulinaemic activity
O=C(O)CC[C@H](NC(=O)[C@@H]1CCC(=O)N1)C(=O)N[C@@H](CC(=O)O)C(=O)NCC(=O)O [p-Glu-Glu-Asp-Gly, H-L-(PYRO) GLUTAMYL-L-GLUTAMYL-L-ASPARTYL-GLYCINE] (HELM PEPTIDE1{[Glp].E.D.G}$$$$V2.0) | Especially active | 
NC(=O)CC[C@H](NC(=O)[C@@H]1CCC(=O)N1)C(=O)N[C@@H](CC(=O)O)C(=O)NCC(=O)O [p-Glu-Gln-Asp-Gly, H-L-(PYRO) GLUTAMYL-L-GLUTAMINYL-L-ASPARTYL-GLYCINE] (HELM PEPTIDE1{[Glp].Q.D.G}$$$$V2.0) | most active | 
